These are literature values, as cited in publication PMC11979273, “A phase I study to evaluate the safety, tolerability, and pharmacokinetics of HEC113995PA·H2O, a novel dual-acting serotonergic antidepressant, in healthy subjects” (Frontiers in Pharmacology, 2025).

The conditions of this data set: cited from earlier work.

With `N#Cc1ccc2[nH]cc(CCCCN3CCN(c4ccc5oc(C(N)=O)cc5c4)CC3)c2c1` [Vilazodone], where the note is “20 mg dose”, the “AUC0-∞” value is 502 ng·h/mL and the peak concentration (Cmax) was 28.5 ng/mL. Under “in vivo”, the “Tmax (peak)” value was 5 h and the t1/2 is 24.1 h.

As usually defined, the Cmax is the highest concentration seen after dosing.
